Reference: ChEMBL document CHEMBL1201862, “PubChem BioAssay data set” (2004)
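In this assay, cells in 96-well plates receive the compound at five concentrations for 48 hours. Endpoints are linearly interpolated between the surrounding concentrations. The concentration for 50% growth inhibition is given as GI50.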 Active and inactive are the calls of the source. Rule as the data show it: active = GI50 up to about 1.1 µM and inactive = higher.

Assays:
Test in all cases: NCI anticancer screen, dose series, 48 h
HL-60 = tested on: HL-60
SF-268 = tested on: SF-268
COLO 205 = tested on: COLO 205
UACC-257 = tested on: UACC-257
SN12C = tested on: SN12C
NCI-H522 = tested on: NCI-H522
OVCAR-8 = tested on: OVCAR-8
U-251 = tested on: U-251
IGROV-1 = tested on: IGROV-1
HT-29 = tested on: HT-29
DMS-114 = tested on: DMS-114
LOX IMVI = tested on: LOX IMVI
HOP-18 = tested on: HOP-18
HOP-92 = tested on: HOP-92
SK-MEL-2 = tested on: SK-MEL-2
SK-MEL-28 = tested on: SK-MEL-28
SF-295 = tested on: SF-295
HCT-116 = tested on: HCT-116
M19-MEL = tested on: M19-MEL
OVCAR-5 = tested on: OVCAR-5
EKVX = tested on: EKVX
HCC 2998 = tested on: HCC 2998
SNB-19 = tested on: SNB-19
A549 = tested on: A549
K562 = tested on: K562
SK-OV-3 = tested on: SK-OV-3
A498 = tested on: A498
CCRF-CEM = tested on: CCRF-CEM
KM12 = tested on: KM12
Malme-3M = tested on: Malme-3M
NCI/ADR-RES = tested on: NCI/ADR-RES
OVCAR-3 = tested on: OVCAR-3
UACC-62 = tested on: UACC-62
RPMI-8226 = tested on: RPMI-8226
MCF7 = tested on: MCF7
UO-31 = tested on: UO-31
SW-620 = tested on: SW-620
MOLT-4 = tested on: MOLT-4
SF-539 = tested on: SF-539
SNB-78 = tested on: SNB-78
DMS-273 = tested on: DMS-273
OVCAR-4 = tested on: OVCAR-4
NCI-H460 = tested on: NCI-H460
RXF 393 = tested on: RXF 393
NCI-H226 = tested on: NCI-H226
SNB-75 = tested on: SNB-75
NCI-H23 = tested on: NCI-H23
HCT-15 = tested on: HCT-15
KM-20L2 = tested on: KM-20L2
DLD-1 = tested on: DLD-1
SK-MEL-5 = tested on: SK-MEL-5
HOP-62 = tested on: HOP-62
XF498 = tested on: XF498
CAKI-1 = tested on: CAKI-1
786-0 = tested on: 786-0
TK-10 = tested on: TK-10
ACHN = tested on: ACHN
SR = tested on: SR
M14 = tested on: M14
LXFL 529 = tested on: LXFL 529

Measured: GI50

O=C(NCCCCCCNC(=O)n1cc(F)c(=O)[nH]c1=O)NCCCOCCOCCCNC(=O)C(O)C(O)C(O)C(O)CO (stereo not given)
active: HCC 2998 0.152 µM
2.43 µM: HCT-15
inactive: HL-60 > 2.29 µM | SF-268 > 2.5 µM | COLO 205 > 2.5 µM | UACC-257 > 2.5 µM | SN12C > 2.5 µM | NCI-H522 > 2.5 µM | OVCAR-8 > 2.5 µM | U-251 > 2.5 µM | IGROV-1 > 2.5 µM | HT-29 > 2.32 µM | DMS-114 > 2.5 µM | LOX IMVI > 2.16 µM | HOP-18 > 2.5 µM | HOP-92 > 2.5 µM | SK-MEL-2 > 2.5 µM | SK-MEL-28 > 2.5 µM | SF-295 > 2.5 µM | HCT-116 > 2.05 µM | M19-MEL > 2.5 µM | OVCAR-5 > 2.5 µM | EKVX > 2.5 µM | SNB-19 > 2.5 µM | A549 > 2.05 µM | K562 > 2.5 µM | SK-OV-3 > 2.5 µM | A498 > 2.5 µM | CCRF-CEM > 2.5 µM | KM12 > 2.5 µM | Malme-3M > 1.53 µM | NCI/ADR-RES > 2.5 µM | OVCAR-3 > 2.5 µM | UACC-62 > 2.5 µM | RPMI-8226 > 2.5 µM | MCF7 > 2.27 µM | UO-31 > 2.3 µM | SW-620 > 2.5 µM | MOLT-4 > 2.5 µM | SF-539 > 1.84 µM | SNB-78 > 2.5 µM | DMS-273 > 2.5 µM | OVCAR-4 > 2.5 µM | NCI-H460 1.51 µM | RXF 393 > 2.5 µM | NCI-H226 > 2.5 µM | SNB-75 > 2.5 µM | NCI-H23 > 2.5 µM | KM-20L2 > 2.5 µM | DLD-1 2.44 µM | SK-MEL-5 > 2.5 µM | HOP-62 > 2.5 µM | XF498 > 2.5 µM

C[C@@H]1CC[C@@]2(C)OC(c3ccccc3)[C@H](CO)N2C1=O (stereo not given in full)
inactive: SF-268 > 100 µM | COLO 205 > 100 µM | UACC-257 > 100 µM | SN12C > 100 µM | OVCAR-8 > 100 µM | U-251 > 100 µM | IGROV-1 > 100 µM | HT-29 > 100 µM | DMS-114 > 100 µM | LOX IMVI > 100 µM | HOP-18 > 100 µM | HOP-92 > 100 µM | CAKI-1 > 100 µM | SK-MEL-2 > 100 µM | 786-0 > 100 µM | SK-MEL-28 > 100 µM | SF-295 > 100 µM | HCT-116 > 100 µM | M19-MEL > 100 µM | TK-10 > 100 µM | OVCAR-5 > 100 µM | EKVX > 100 µM | SNB-19 > 100 µM | A549 > 100 µM | K562 > 100 µM | A498 > 100 µM | KM12 > 100 µM | Malme-3M > 100 µM | OVCAR-3 > 100 µM | UACC-62 > 100 µM | RPMI-8226 > 100 µM | SW-620 > 100 µM | SF-539 > 100 µM | SNB-78 > 100 µM | ACHN > 100 µM | DMS-273 > 100 µM | OVCAR-4 > 100 µM | SR > 100 µM | NCI-H460 > 100 µM | RXF 393 > 100 µM | SNB-75 > 100 µM | NCI-H23 > 100 µM | KM-20L2 > 100 µM | DLD-1 > 100 µM | SK-MEL-5 > 100 µM | HOP-62 > 100 µM | XF498 > 100 µM
> 100 µM: HCT-15

CCOC(=O)c1ccc(/N=N/c2cc(C(=O)OCC)ccc2O)cc1
> 100 µM: HCT-15
inactive: HL-60 > 100 µM | SF-268 > 100 µM | COLO 205 > 100 µM | SN12C > 100 µM | NCI-H522 41.9 µM | OVCAR-8 > 100 µM | U-251 > 100 µM | IGROV-1 > 100 µM | HT-29 43.6 µM | DMS-114 > 100 µM | LOX IMVI > 100 µM | HOP-18 > 100 µM | HOP-92 > 100 µM | CAKI-1 46.6 µM | 786-0 76 µM | SK-MEL-28 > 100 µM | HCT-116 > 100 µM | M19-MEL > 100 µM | TK-10 > 100 µM | EKVX 20.1 µM | A549 > 100 µM | K562 > 100 µM | SK-OV-3 > 100 µM | A498 68.9 µM | CCRF-CEM > 100 µM | UACC-62 > 100 µM | RPMI-8226 > 100 µM | UO-31 > 100 µM | SW-620 > 100 µM | MOLT-4 80.7 µM | SF-539 > 100 µM | ACHN 84.3 µM | M14 > 100 µM | DMS-273 > 100 µM | LXFL 529 > 100 µM | NCI-H460 > 100 µM | RXF 393 > 100 µM | NCI-H23 > 100 µM | KM-20L2 > 100 µM | DLD-1 > 100 µM | SK-MEL-5 > 100 µM | HOP-62 > 100 µM | XF498 2.13 µM
